Experimental findings from patent US20020137929A1, “1 - (3-heterocyclylphenyl) isothiourea, -isourea, -guanidine and -amidine herbicidal agents” (Intellectual Property Department, BASF Aktiengesellschaft, priority 1998, published 2002) are described below.

The test system of experiment [1] is ECHCG (Barnyardgrass). Put plainly: Postemergence herbicidal evaluation. The format is in vivo, Echinochloa crus-galli. The note with it: for herbicidal rating ECHCG: postemergence. In outline:
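~2-wk seedlings; postemergence spray, 40 psi; vehicle 1:1 acetone:water + 0.5% Tween 20; rate ≈0.0156–0.500 kg/ha; greenhouse hold; scored 4–5 wk after treatment, 0–9 scale vs control; repeat tests averaged.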

The subject of experiment [2] is CHEAL (Lambsquarters, Common). The experiment can be described thus: Preemergence herbicidal evaluation. The format is in vivo, Chenopodium album. The settings on record: rated 4-5 weeks after treatment; for CHEAL rating: preemergence, 0-9 scale. An outline of the steps: (§1)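 Seeds were mixed with potting soil and planted on about one inch of soil, then sprayed with test compound in aqueous acetone at about 0.0156 to 0.500 kg per hectare. Plants grew under standard greenhouse care and were visually rated 0-9 against untreated controls 4-5 weeks post-treatment.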

The subject of experiment [3] is ORYSAT (Rice, Tebonnet). Put plainly: Preemergence herbicidal evaluation. The settings on record: rated 4-5 weeks after treatment; for ORYSAT rating: preemergence, 0-9 scale. Format: in vivo, Oryza sativa, (L.) Tebonnet. In outline: as §1
The subject of experiment [4] is ECHORC (Watergrass (Calif.)). The experiment can be described thus: Preemergence weed control under flooded paddy conditions. Format: in vivo, Echinochloa oryzoides. The note with it: rated 3-4 weeks after treatment. In outline: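 Flooded-pot preemergence screen with silt loam and seeds in the upper 0.5 cm. Dose about 0.0313 to 0.500 kg/ha, delivered into flood water; visual 0-9 score after 3 to 4 weeks.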

Experiment [5] deals with CYPSE (Flatsedge). The description is as above. Format: in vivo, Cyperus serotinus. The note with it: rated 3-4 weeks after treatment. In outline:
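First, seeds or propagules go into the top 0.5 cm of silt loam; next, water is held 1.5 to 3 cm over the soil; then compound (50/50 acetone/water) is pipetted into it at about 0.0313 to 0.500 kg/ha; finally plants are rated visually 0-9 after three to four weeks.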

For experiment [6], the system named is MOOVA (Monochoria). The experiment can be described thus: Postemergence weed control under flooded paddy conditions. Format: in vivo, Monochoria vaginalis. The note with it: postemergence weeds. In outline:
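Containers holding 3–5 cm weeds and rice at 1.5–2.5 leaves are flooded to 1.5–3 cm above soil. Compound in 50/50 v/v aqueous/acetone is then added directly to the water, about 0.0313–0.500 kg/ha. Plants are kept in the greenhouse and rated 0–9 visually at 3–4 weeks.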

Regarding `CCOC(=O)CN1C(=O)C(CC(=O)O)O/C1=N/c1cc(-n2c(=O)cc(C(F)(F)F)n(C)c2=O)c(F)cc1Cl` (centres unmarked) [Compound 41, 2-{{2-Chloro-5-[3,6-dihydro-3-methyl-2,6-dioxo-4-(trifluoromethyl)-1(2H)-pyrimidinyl]-4-fluoro-phenyl}imino}-4-oxo-3,5-oxazolidinediacetic acid, 3-ethyl ester], the “Postemergence herbicidal rating ECHCG” value stood at 2.0 in experiment [1] (Rate 0.0158 kg/ha), 7.0 in experiment [1] (Rate 0.0315 kg/ha) and 9.0 in experiment [1] (Rate 0.0630 kg/ha). Also, the “Preemergence herbicidal rating CHEAL” value worked out at 0.0 in experiment [2] (rate 0.0156 kg/ha); 4.0 in experiment [2] (rate 0.0313 kg/ha); 9.0 in experiment [2] (rate 0.0625 kg/ha); 9.0 in experiment [2] (rate 0.1250 kg/ha); 9.0 in experiment [2] (rate 0.2500 kg/ha). Also, the “Preemergence herbicidal rating ORYSAT” value in experiment [3] (rate 0.0156 kg/ha), in experiment [3] (rate 0.0313 kg/ha), in experiment [3] (rate 0.0625 kg/ha), in experiment [3] (rate 0.1250 kg/ha) and in experiment [3] (rate 0.2500 kg/ha) was 0.0 throughout. For the same compound, the “Herbicidal rating ECHORC” value in experiment [4] (0.0313 kg/ha) is given as 3.0; in experiment [4] (0.0625 kg/ha) it was 4.0; in experiment [4] (0.1250 kg/ha) it was 6.0; in experiment [4] (0.2500 kg/ha), 7.0. In addition, the “Herbicidal rating CYPSE” value in experiment [5] (0.0313 kg/ha) was 0.0; in experiment [5] (0.0625 kg/ha) it was 0.0; in experiment [5] (0.1250 kg/ha), 2.0; in experiment [5] (0.2500 kg/ha), 7.0. Besides, the “Herbicidal rating MOOVA” value amounted to 6.0 in experiment [6] (rate 0.0313 kg/ha, 3-4 weeks after treatment); 9.0 in experiment [6] (rate 0.0625 kg/ha, 3-4 weeks after treatment); 9.0 in experiment [6] (rate 0.1250 kg/ha, 3-4 weeks after treatment); 9.0 in experiment [6] (rate 0.2500 kg/ha, 3-4 weeks after treatment).
For `CCS(=O)(=O)NC(=O)CC1SC(=Nc2cc(-n3c(=O)cc(C(F)(F)F)n(C)c3=O)c(F)cc2Cl)N(C)C1=O` (centres unmarked) [Compound 105, 2-{{2-Chloro-5-[3,6-dihydro-3-methyl-2,6-dioxo-4-(trifluoromethyl)-1(2H)-pyrimidinyl]-4-fluorophenyl}imino}-N-(ethylsulfonyl)-3-methyl-4-oxo-5-thiazolidineacetamide], the “herbicidal rating ECHCG” value in experiment [1] (rate 0.0156 kg/ha) is recorded as 0.0; in experiment [1] (rate 0.0313 kg/ha), 0.0; in experiment [1] (rate 0.0625 kg/ha), 0.0; in experiment [1] (rate 0.1250 kg/ha) it was 3.0. The CHEAL rating in experiment [2] (0.1250 kg/ha), in experiment [2] (0.2500 kg/ha) and in experiment [2] (0.5000 kg/ha) was 9.0 throughout. For the same compound, the ORYSAT rating in experiment [3] (0.1250 kg/ha), in experiment [3] (0.2500 kg/ha) and in experiment [3] (0.5000 kg/ha) was 0.0 in each case. The “ECHORC herbicidal effect rating” value in experiment [4] (0.0313 kg/ha) stood at 0.0; in experiment [4] (0.0625 kg/ha), 3.0; in experiment [4] (0.1250 kg/ha), 4.0; in experiment [4] (0.2500 kg/ha), 5.0. The “CYPSE herbicidal effect rating” value in experiment [5] (0.0313 kg/ha) was determined as 2.0; in experiment [5] (0.0625 kg/ha) it was 5.0; in experiment [5] (0.1250 kg/ha), 7.0; in experiment [5] (0.2500 kg/ha), 9.0. Also, the “Herbicidal rating MOOVA” value is 6.0 in experiment [6] (Rate 0.0313 kg/ha, rated 3 to 4 weeks after treatment); 7.0 in experiment [6] (Rate 0.0625 kg/ha, rated 3 to 4 weeks after treatment); 7.0 in experiment [6] (Rate 0.1250 kg/ha, rated 3 to 4 weeks after treatment); 9.0 in experiment [6] (Rate 0.2500 kg/ha, rated 3 to 4 weeks after treatment).
